Experimental data as given in patent US20260285850A1, “SUBSTITUTED OXAZOLIDINONES AND IMIDAZOLINONES AS HERBICIDES” (FMC CORPORATION, priority 2023, published 2026).

How the values were obtained:
Assay type in all cases: in vivo
[1] = system: oat, wild (wild oat, Avena fatua); experiment: Test A preemergence soil spray, visual injury rating 0-100; conditions: 10 days
Outline: (§1)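 Rating: visual, day 10, untreated plants as reference, 0 no effect to 100 full control. Plants were in loam-sand and were treated either preemergence via directed soil spray or postemergence at the one- to two-leaf stage.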

[2] = system: blackgrass (Alopecurus myosuroides); experiment: as above; conditions: 10 days
Outline: as §1

[3] = system: wheat (Triticum aestivum); experiment: as above; conditions: 10 days
Outline: as §1

[4] = system: corn (Zea mays); experiment: as above; conditions: 10 days
Outline: as §1

[5] = system: kochia (Bassia scoparia); experiment: as above; conditions: 10 days
Outline: as §1

[6] = system: soybean (Glycine max); experiment: as above; conditions: 10 days
Outline: as §1

[7] = system: barnyardgrass (Echinochloa crus-galli); experiment: as above; conditions: 10 days
Outline: as §1

[8] = system: palmer (palmer amaranth, palmer pigweed, Amaranthus palmeri); experiment: as above; conditions: 10 days
Outline: as §1

[9] = system: ryegrass, Italian (italian ryegrass, Lolium multiflorum); experiment: as above; conditions: 10 days
Outline: as §1

[10] = system: green foxtail (Setaria viridis); experiment: as above; conditions: 10 days
Outline: as §1

[11] = system: ragweed (common ragweed, Ambrosia artemisiifolia); experiment: as above; conditions: 10 days
Outline: as §1

[12] = system: sedge, umbrella (small-flower umbrella sedge, Cyperus difformis); experiment: Test B flooded paddy test, visual plant response rating 0-100; conditions: 250 g ai/ha, Flood, applied to paddy water, evaluated after 13 days
Outline: (§2)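 Plants were grown to the 2-leaf stage, then pots were flooded to 3 cm above the soil and test compounds were applied directly into the paddy water. Water depth was held there throughout; after 13 days in a greenhouse, injury was scored visually against untreated controls.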

[13] = system: ducksalad (Heteranthera limosa); experiment: as above; conditions: 250 g ai/ha, Flood, applied to paddy water, evaluated after 13 days
Outline: as §2

[14] = system: barnyardgrass (Echinochloa crusgalli); experiment: as above; conditions: 250 g ai/ha, Flood, applied to paddy water, evaluated after 13 days
Outline: as §2

[15] = system: rice (Oryza sativa); experiment: as above; conditions: 250 g ai/ha, Flood, applied to paddy water, evaluated after 13 days
Outline: as §2

[16] = system: oat, wild (wild oat, Avena fatua); experiment: Test A postemergence application, visual injury rating 0-100
Outline: as §1

[17] = system: blackgrass (Alopecurus myosuroides); experiment: as above
Outline: as §1

[18] = system: wheat (Triticum aestivum); experiment: as above
Outline: as §1

[19] = system: corn (Zea mays); experiment: as above
Outline: as §1

[20] = system: kochia (Bassia scoparia); experiment: as above
Outline: as §1

[21] = system: soybean (Glycine max); experiment: as above
Outline: as §1

[22] = system: horseweed (Erigeron canadensis); experiment: as above
Outline: as §1

[23] = system: barnyardgrass (Echinochloa crus-galli); experiment: as above
Outline: as §1

[24] = system: palmer (palmer amaranth, palmer pigweed, Amaranthus palmeri); experiment: as above
Outline: as §1

[25] = system: galium (catchweed bedstraw, Galium aparine); experiment: as above; conditions: Postemergence, 16 g ai/ha, greenhouse 10 days; 0 no effect, 100 complete control
Outline: as §1

[26] = system: ryegrass, Italian (italian ryegrass, Lolium multiflorum); experiment: as above
Outline: as §1

[27] = system: green foxtail (Setaria viridis); experiment: as above
Outline: as §1

[28] = system: ragweed (common ragweed, Ambrosia artemisiifolia); experiment: as above
Outline: as §1

[29] = 62 g ai/ha, 0 = no effect, 100 = complete control
[30] = 62 g ai/ha, postemergence, 10 days, 0 = no effect, 100 = complete control
[31] = Postemergence, 16 g ai/ha, greenhouse 10 days, 0 no effect, 100 complete control

CC1(C(=O)NC2CC=C(C(=O)OCC(F)F)C2)CN(c2cc(F)cc(F)c2)C(=O)O1 (stereo not drawn) [Compound 152]
80: Plant response rating, Ducksalad (0 to 100 scale, 0 is no effect and 100 is complete control) [13] | Oat, Wild plant response rating (0 to 100 scale) [16, 31] | Wheat plant response rating (0 to 100 scale) [18, 31] | Soybean plant response rating (0-100) [21, 30] | Ryegrass, Italian plant response rating (0-100) [26, 30]
10: Corn plant response rating ([4]; 16 g ai/ha, 0 to 100 scale)
0: Oat, Wild plant response rating ([1]; 16 g ai/ha, 0 to 100 scale) | Blackgrass plant response rating ([2]; 16 g ai/ha, 0 to 100 scale) | Blackgrass plant response rating (0-100) [2, 29] | Soybean plant response rating ([6]; 16 g ai/ha, 0 to 100 scale) | Pigweed, Palmer plant response rating ([8]; 16 g ai/ha, 0 to 100 scale) | Ragweed plant response rating ([11]; 16 g ai/ha, 0 to 100 scale)
100: Barnyardgrass plant response rating (0-100) [7, 29] | Foxtail, Green plant response rating (0-100) [10, 29] | Blackgrass plant response rating (0-100) [17, 30] | Corn plant response rating (0-100) [19, 30] | Corn plant response rating (0 to 100 scale) [19, 31] | Barnyardgrass plant response rating (0-100) [23, 30] | Barnyardgrass plant response rating (0 to 100 scale) [23, 31]
70: Oat, Wild plant response rating (0-100) [1, 29] | Wheat plant response rating ([3]; 16 g ai/ha, 0 to 100 scale) | Ryegrass, Italian plant response rating ([9]; 16 g ai/ha, 0 to 100 scale) | Blackgrass plant response rating (0 to 100 scale) [17, 31] | Horseweed plant response rating (0-100) [22, 30] | Galium plant response rating (0 to 100 scale) [25] | Ryegrass, Italian plant response rating (0 to 100 scale) [26, 31]
50: Ragweed plant response rating (0-100) [28, 30]
60: Corn plant response rating (0-100) [4, 29] | Soybean plant response rating (0-100) [6, 29] | Soybean plant response rating (0 to 100 scale) [21, 31] | Pigweed, Palmer plant response rating (0 to 100 scale) [24, 31]
20: Ragweed plant response rating (0 to 100 scale) [28, 31]
90: Wheat plant response rating (0-100) [3, 29] | Kochia plant response rating ([5]; 16 g ai/ha, 0 to 100 scale) | Kochia plant response rating (0-100) [5, 29] | Pigweed, Palmer plant response rating (0-100) [8, 29] | Ryegrass, Italian plant response rating (0-100) [9, 29] | Plant response rating, Sedge, Umbrella (0 to 100 scale, 0 is no effect and 100 is complete control) [12] | Plant response rating, Barnyardgrass (0 to 100 scale, 0 is no effect and 100 is complete control) [14] | Oat, Wild plant response rating (0-100) [16, 30] | Wheat plant response rating (0-100) [18, 30] | Kochia plant response rating (0-100) [20, 30] | Kochia plant response rating (0 to 100 scale) [20, 31] | Pigweed, Palmer plant response rating (0-100) [24, 30] | Foxtail, Green plant response rating (0-100) [27, 30] | Foxtail, Green plant response rating (0 to 100 scale) [27, 31]
30: Barnyardgrass plant response rating ([7]; 16 g ai/ha, 0 to 100 scale) | Foxtail, Green plant response rating ([10]; 16 g ai/ha, 0 to 100 scale) | Ragweed plant response rating (0-100) [11, 29] | Horseweed plant response rating (0 to 100 scale) [22, 31]
85: Plant response rating, Rice (0 to 100 scale, 0 is no effect and 100 is complete control) [15]
